Test results taken from patent publication US20160038468A1 (priority 2013, published 2016).
Converted amounts (≈) assume the structure as drawn. Read-outs that look alike come from different tables or passages of the source.

Tests used:
Atopobium vaginae = test: Agar dilution MIC (CLSI), Atopobium vaginae vaginal isolates; type: cell-based; settings: for Number of strains with indicated MIC: 62 samples
Mobiluncus spp = test: Agar dilution MIC (CLSI), Mobiluncus spp vaginal isolate; type: cell-based; settings: read-out: Minimal Inhibitory Concentration (MIC)
Prevotella bivia = test: Agar dilution MIC (CLSI), Prevotella bivia vaginal isolates; type: cell-based; settings: for Number of strains with indicated MIC: 34 samples; for MIC: read-out: Minimal Inhibitory Concentration (MIC)
Prevotella timonensis = test: Agar dilution MIC (CLSI), Prevotella timonensis vaginal isolates; type: cell-based; settings: for MIC: read-out: Minimal Inhibitory Concentration (MIC)
Anaerococcus tetradius = test: Agar dilution MIC (CLSI), Anaerococcus tetradius vaginal isolates; type: cell-based; settings: for MIC: read-out: Minimal Inhibitory Concentration (MIC)
B. fragilis, ATCC 25285 = settings: agar dilution testing, from CLSI Table 5; cited from earlier work
[1] = tested on: B. thetaiotaomicron, ATCC 29741; settings: agar dilution testing, from CLSI Table 5; cited from earlier work
[2] = Fannyhessea vaginae, # tested 62
[3] = Hoylesella timonensis, # tested 33
[4] = Anaerococcus tetradius, # tested 21

For Cc1ncc([N+](=O)[O-])n1CCO [Metronidazole], the “activity against Atopobium vaginae” value (Atopobium vaginae) was “limited activity”, the MIC50 (Atopobium vaginae; [2]) was 128 µg/mL (≈ 748 µM) and the MIC90 (Atopobium vaginae; [2]) was over 128 µg/mL. For the same compound, the “Number of strains with indicated MIC” value (Atopobium vaginae; MIC 8 μg/ml) was 2, the “Number of strains with indicated MIC” value (Atopobium vaginae; MIC 16 μg/ml) was 5 and the “Number of strains with indicated MIC” value (Atopobium vaginae; MIC 32 μg/ml) was 10. For the same compound, the “Number of strains with indicated MIC” value (Atopobium vaginae; MIC 64 μg/ml) was 8, the “Number of strains with indicated MIC” value (Atopobium vaginae; MIC >[…]) was 24 and the “Number of strains with indicated MIC” value (Atopobium vaginae; MIC […] μg/ml) was 1. For the same compound, the “Number of strains with indicated MIC” value (Atopobium vaginae; MIC […]) was 12, the MIC (Mobiluncus spp) was 0.03 µg/mL (≈ 0.175 µM) and the “MIC Range” value (Prevotella bivia; # tested 34) was 4 to 16 µg/mL. The “Number of strains with indicated MIC” value (Prevotella bivia; MIC 8 μg/ml) was 6, the “Number of strains with indicated MIC” value (Prevotella bivia; MIC 16 μg/ml) was 13 and the “Number of strains with indicated MIC” value (Prevotella bivia; MIC […] μg/ml) was 15. It also gave an MIC (Prevotella bivia; Prevotella bivia, isolate 601096 25) of 4 µg/mL (≈ 23.4 µM), an MIC (Prevotella bivia; Prevotella bivia, isolate 601166 M) of 16 µg/mL (≈ 93.5 µM) and an MIC (Prevotella bivia; Prevotella bivia, isolate 601202 21) of 16 µg/mL (≈ 93.5 µM). The MIC (Prevotella bivia; Prevotella bivia, isolate 601203 5) was 4 µg/mL (≈ 23.4 µM), the MIC (Prevotella bivia; Prevotella bivia, isolate 601209 A1) was 4 µg/mL (≈ 23.4 µM) and the MIC (Prevotella bivia; Prevotella bivia, isolate 601212 9) was 4 µg/mL (≈ 23.4 µM). For the same compound, the MIC (Prevotella bivia; Prevotella bivia, isolate 601213 9A) was 16 µg/mL (≈ 93.5 µM), the MIC (Prevotella bivia; Prevotella bivia, isolate 601214 B) was 16 µg/mL (≈ 93.5 µM) and the MIC (Prevotella bivia; Prevotella bivia, isolate 601241 13) was 4 µg/mL (≈ 23.4 µM). The MIC (Prevotella bivia; Prevotella bivia, isolate 601243 15) was 16 µg/mL (≈ 93.5 µM), the MIC (Prevotella bivia; Prevotella bivia, isolate 601255 10) was 4 µg/mL (≈ 23.4 µM) and the MIC (Prevotella bivia; Prevotella bivia, isolate 601261 C) was 4 µg/mL (≈ 23.4 µM). For the same compound, the MIC (Prevotella bivia; Prevotella bivia, isolate 601283 20) was 16 µg/mL (≈ 93.5 µM), the MIC (Prevotella bivia; Prevotella bivia, isolate 601285 14) was 4 µg/mL (≈ 23.4 µM) and the MIC (Prevotella bivia; Prevotella bivia, isolate 601293 22) was 8 µg/mL (≈ 46.7 µM). For the same compound, the MIC (Prevotella bivia; Prevotella bivia, isolate 601305 H) was 16 µg/mL (≈ 93.5 µM), the MIC (Prevotella bivia; Prevotella bivia, isolate 601340 31) was 4 µg/mL (≈ 23.4 µM) and the MIC (Prevotella bivia; Prevotella bivia, isolate 601355 B) was 8 µg/mL (≈ 46.7 µM). For the same compound, the MIC (Prevotella bivia; Prevotella bivia, isolate 601367 M) was 8 µg/mL (≈ 46.7 µM), the MIC (Prevotella bivia; Prevotella bivia, isolate 601374 A1) was 16 µg/mL (≈ 93.5 µM) and the MIC (Prevotella bivia; Prevotella bivia, isolate 601378 B) was 16 µg/mL (≈ 93.5 µM). It also gave an MIC (Prevotella bivia; Prevotella bivia, isolate 601379 19) of 16 µg/mL (≈ 93.5 µM), an MIC (Prevotella bivia; Prevotella bivia, isolate 601388 T) of 4 µg/mL (≈ 23.4 µM) and an MIC (Prevotella bivia; Prevotella bivia, isolate 601389 10) of 4 µg/mL (≈ 23.4 µM). For the same compound, the MIC (Prevotella bivia; Prevotella bivia, isolate 601389 J) was 4 µg/mL (≈ 23.4 µM), the MIC (Prevotella bivia; Prevotella bivia, isolate 601392 14) was 4 µg/mL (≈ 23.4 µM) and the MIC (Prevotella bivia; Prevotella bivia, isolate 601409 V) was 4 µg/mL (≈ 23.4 µM). For the same compound, the MIC (Prevotella bivia; Prevotella bivia, isolate 601410 12) was 4 µg/mL (≈ 23.4 µM), the MIC (Prevotella bivia; Prevotella bivia, isolate 601429 1) was 8 µg/mL (≈ 46.7 µM) and the MIC (Prevotella bivia; Prevotella bivia, isolate 601433 19) was 8 µg/mL (≈ 46.7 µM). It also gave an MIC (Prevotella bivia; Prevotella bivia, isolate 601449 E) of 16 µg/mL (≈ 93.5 µM), an MIC (Prevotella bivia; Prevotella bivia, isolate 601453 A) of 8 µg/mL (≈ 46.7 µM) and an MIC (Prevotella bivia; Prevotella bivia, isolate 601455 D1) of 16 µg/mL (≈ 93.5 µM). For the same compound, the MIC (Prevotella bivia; Prevotella bivia, isolate 601458 16) was 16 µg/mL (≈ 93.5 µM), the MIC50 (Prevotella bivia; Prevotella bivia, # tested 34) was 8 µg/mL (≈ 46.7 µM) and the MIC90 (Prevotella bivia; Prevotella bivia, # tested 34) was 16 µg/mL (≈ 93.5 µM). For the same compound, the Susceptible (Prevotella bivia; number (%) of isolates, # tested 34) was 21 (62) μg/ml, the MIC (Prevotella timonensis; Hoylesella timonensis, isolate 301212 10) was 2 µg/mL (≈ 11.7 µM) and the MIC (Prevotella timonensis; Hoylesella timonensis, isolate 601080 5) was 2 µg/mL (≈ 11.7 µM). For the same compound, the MIC (Prevotella timonensis; Hoylesella timonensis, isolate 601088 15) was 2 µg/mL (≈ 11.7 µM), the MIC (Prevotella timonensis; Hoylesella timonensis, isolate 601093 24) was 2 µg/mL (≈ 11.7 µM) and the MIC (Prevotella timonensis; Hoylesella timonensis, isolate 601097 S) was 2 µg/mL (≈ 11.7 µM). The MIC (Prevotella timonensis; Hoylesella timonensis, isolate 601098 B) was 2 µg/mL (≈ 11.7 µM), the MIC (Prevotella timonensis; Hoylesella timonensis, isolate 601157 19) was 2 µg/mL (≈ 11.7 µM) and the MIC (Prevotella timonensis; Hoylesella timonensis, isolate 601167 13) was 2 µg/mL (≈ 11.7 µM). It also gave an MIC (Prevotella timonensis; Hoylesella timonensis, isolate 601170 13) of 2 µg/mL (≈ 11.7 µM), an MIC (Prevotella timonensis; Hoylesella timonensis, isolate 601175 J) of 2 µg/mL (≈ 11.7 µM) and an MIC (Prevotella timonensis; Hoylesella timonensis, isolate 601178 19) of 2 µg/mL (≈ 11.7 µM). For the same compound, the MIC (Prevotella timonensis; Hoylesella timonensis, isolate 601194 9B) was 2 µg/mL (≈ 11.7 µM), the MIC (Prevotella timonensis; Hoylesella timonensis, isolate 601214 A) was 4 µg/mL (≈ 23.4 µM) and the MIC (Prevotella timonensis; Hoylesella timonensis, isolate 601226 C) was 2 µg/mL (≈ 11.7 µM). The MIC (Prevotella timonensis; Hoylesella timonensis, isolate 601234 B) was 2 µg/mL (≈ 11.7 µM), the MIC (Prevotella timonensis; Hoylesella timonensis, isolate 601252 B) was 4 µg/mL (≈ 23.4 µM) and the MIC (Prevotella timonensis; Hoylesella timonensis, isolate 601255 17) was 2 µg/mL (≈ 11.7 µM). For the same compound, the MIC (Prevotella timonensis; Hoylesella timonensis, isolate 601266 18) was 2 µg/mL (≈ 11.7 µM), the MIC (Prevotella timonensis; Hoylesella timonensis, isolate 601278 12) was over 128 µg/mL and the MIC (Prevotella timonensis; Hoylesella timonensis, isolate 601281 22) was 2 µg/mL (≈ 11.7 µM). The MIC (Prevotella timonensis; Hoylesella timonensis, isolate 601287 H) was 2 µg/mL (≈ 11.7 µM), the MIC (Prevotella timonensis; Hoylesella timonensis, isolate 601293 13) was 4 µg/mL (≈ 23.4 µM) and the MIC (Prevotella timonensis; Hoylesella timonensis, isolate 601367 E) was 4 µg/mL (≈ 23.4 µM). The MIC (Prevotella timonensis; Hoylesella timonensis, isolate 601370 13) was 4 µg/mL (≈ 23.4 µM), the MIC (Prevotella timonensis; Hoylesella timonensis, isolate 601388 S) was 4 µg/mL (≈ 23.4 µM) and the MIC (Prevotella timonensis; Hoylesella timonensis, isolate 601401 J) was 2 µg/mL (≈ 11.7 µM). The MIC (Prevotella timonensis; Hoylesella timonensis, isolate 601411 S) was 4 µg/mL (≈ 23.4 µM), the MIC (Prevotella timonensis; Hoylesella timonensis, isolate 601414 O) was 4 µg/mL (≈ 23.4 µM) and the MIC (Prevotella timonensis; Hoylesella timonensis, isolate 601422 39) was 2 µg/mL (≈ 11.7 µM). For the same compound, the MIC (Prevotella timonensis; Hoylesella timonensis, isolate 601429 11) was 2 µg/mL (≈ 11.7 µM), the MIC (Prevotella timonensis; Hoylesella timonensis, isolate 601459 21) was 2 µg/mL (≈ 11.7 µM) and the MIC50 (Prevotella timonensis; [3]) was 2 µg/mL (≈ 11.7 µM). The MIC90 (Prevotella timonensis; [3]) was 4 µg/mL (≈ 23.4 µM), the “Number of strains with indicated MIC” value (Prevotella timonensis; MIC >[…], 33 samples) was 1 and the Resistant (Prevotella timonensis; number (%) of isolates, # tested 33, resistance: rifaximin >32, metronidazole >32, clindamycin >8 μg/ml) was 1 (3) μg/ml. It also gave an MIC (Anaerococcus tetradius; Anaerococcus tetradius, isolate 601103V 21) of 1 µg/mL (≈ 5.84 µM), an MIC (Anaerococcus tetradius; Anaerococcus tetradius, isolate 601175V I) of 1 µg/mL (≈ 5.84 µM) and an MIC (Anaerococcus tetradius; Anaerococcus tetradius, isolate 601202V 11) of 1 µg/mL (≈ 5.84 µM). It also gave an MIC (Anaerococcus tetradius; Anaerococcus tetradius, isolate 601212V 14) of 1 µg/mL (≈ 5.84 µM), an MIC (Anaerococcus tetradius; Anaerococcus tetradius, isolate 601221V 12) of 128 µg/mL (≈ 748 µM) and an MIC (Anaerococcus tetradius; Anaerococcus tetradius, isolate 601242V 17) of 1 µg/mL (≈ 5.84 µM). It also gave an MIC (Anaerococcus tetradius; Anaerococcus tetradius, isolate 601256V 9) of 1 µg/mL (≈ 5.84 µM), an MIC (Anaerococcus tetradius; Anaerococcus tetradius, isolate 601287V V) of 1 µg/mL (≈ 5.84 µM) and an MIC (Anaerococcus tetradius; Anaerococcus tetradius, isolate 601305V J) of 1 µg/mL (≈ 5.84 µM). For the same compound, the MIC (Anaerococcus tetradius; Anaerococcus tetradius, isolate 601326V H) was 1 µg/mL (≈ 5.84 µM), the MIC (Anaerococcus tetradius; Anaerococcus tetradius, isolate 601340V 25) was 1 µg/mL (≈ 5.84 µM) and the MIC (Anaerococcus tetradius; Anaerococcus tetradius, isolate 601342V N) was 1 µg/mL (≈ 5.84 µM). The MIC (Anaerococcus tetradius; Anaerococcus tetradius, isolate 601368V 42) was 1 µg/mL (≈ 5.84 µM), the MIC (Anaerococcus tetradius; Anaerococcus tetradius, isolate 601369V 12) was 1 µg/mL (≈ 5.84 µM) and the MIC (Anaerococcus tetradius; Anaerococcus tetradius, isolate 601379V 25) was 1 µg/mL (≈ 5.84 µM). The MIC (Anaerococcus tetradius; Anaerococcus tetradius, isolate 601401V T) was 1 µg/mL (≈ 5.84 µM), the MIC (Anaerococcus tetradius; Anaerococcus tetradius, isolate 601429V 15) was 1 µg/mL (≈ 5.84 µM) and the MIC (Anaerococcus tetradius; Anaerococcus tetradius, isolate 601450V 22) was 1 µg/mL (≈ 5.84 µM). The MIC (Anaerococcus tetradius; Anaerococcus tetradius, isolate 602375V 22) was 1 µg/mL (≈ 5.84 µM), the MIC50 (Anaerococcus tetradius; [4]) was 1 µg/mL (≈ 5.84 µM) and the MIC90 (Anaerococcus tetradius; [4]) was 1 µg/mL (≈ 5.84 µM). For the same compound, the “Number of strains with indicated MIC” value (Anaerococcus tetradius; MIC […], 21 samples) was 1, the “Acceptable Range of MIC for control strain” value (B. fragilis, ATCC 25285) was 0.25 to 1 µg/mL and the “Acceptable Range of MIC for control strain” value [1] was 0.5 to 2 µg/mL.
